Assay results reported in patent US12128012B2, “Ketamine treatment for amyotrophic lateral sclerosis” (University of Kansas, priority 2020, dated 2024).

Assays:
Assay type in all cases: in vivo
[1] = tested on: SOD1-G93A mouse model of ALS; experiment: Body weight in SOD1-G93A mice under ketamine
Description: (§1) Testing can be performed in SOD1-G93A mice as follows. Body weight and grip strength during a hanging wire test can be measured 3 days a week beginning at 90 days of age (presymptomatic). Drug injections can be made immediately after motor testing. Mice can be tested until they reach end-stage as defined by loss of righting reflex for 30 seconds or if they are found dead in their cage. At death, the muscles (soleus, tibialis anterior, and diaphragm) and brains can be harvested for histological analyses. Comparisons of neuromuscular junction innervation and myosin heavy chain isoforms can be made between the treatment groups. Experiments can determine cortical motor neuronal integrity using standard histological methods.
(§2) Experiments were performed to determine the effects of daily sub-anesthetic doses (e.g., less than 100 mg/kg) of ketamine on the SOD1-G93A mouse model of ALS. The method included administering two doses of ketamine (e.g., 10 mg/kg and 30 mg/kg) and a saline vehicle to three groups of SOD1-G93A mice per day for 5 days per week beginning at 90 days of age. The method included measuring body weight, grip strength, and survival.
The three groups (e.g., 12 mice per group with intraperitoneal injection): vehicle (e.g., 0), 10 mg/kg (e.g., 10), and 30 mg/kg (e.g., 30) are shown (p=0.06). […] As such, the 10 mg/kg dosage may be useful for ALS patients. […] Accordingly, increasing the amount of ketamine administered may increase the effects described herein. Any increase in life (e.g., probability of survival) can be beneficial, which may be accomplished by treatment with the ketamine compound.

[2] = tested on: SOD1-G93A mouse model of ALS; experiment: Grip strength, hanging wire test, SOD1-G93A mice; details: 10 mg/kg and 30 mg/kg vs saline vehicle, 5 days per week from 90 days of age; data not shown
Description: as §1, §2

[3] = tested on: SOD1-G93A mouse model of ALS; experiment: Survival (day of death) in SOD1-G93A mice
Description: as §1, §2
As shown, treatment with the ketamine compound appears to provide a higher probability of survival for a longer period of time for both the 10 mg/kg and 30 mg/kg dosages (p=0.06; FIG. 2). […]

[4] = tested on: SOD1-G93A mouse model of ALS; experiment: Latency between 20% loss of body weight and death in SOD1-G93A mice; details: for latency between 20% loss of body weight and death: FIG. 3 (vehicle about 2 days)
Experimental: as §2
Additionally, the latency in days between the day in which each mouse reached 80% of its initial body weight (i.e., 20% reduction) and the day of death as defined above was calculated. […] Accordingly, higher dosages may still provide for longer latency of life, or longer life expectancy.

CNC1(c2ccccc2Cl)CCCCC1=O (stereo not shown) [ketamine, 2-(2-chlorophenyl)-2-(methylamino)cyclohexan-1-one]
effects on body weight ([1]; 10 mg/kg and 30 mg/kg vs saline vehicle, 5 days per week from 90 days of age, data not shown): no significant effects
probability of survival curve for day body weight fell below 80% ([1]; 10 mg/kg intraperitoneal vs vehicle, FIG. 1): improvement in the probability of survival
loss of body weight (muscle mass), trend in survival curve ([1]; 30 mg/kg intraperitoneal vs 10 mg/kg or without ketamine, FIG. 1): delays loss of body weight (muscle mass) for a longer period of time
survival analysis: day in which body weight fell below 80%, difference between the groups ([1]; vehicle, 10 mg/kg, 30 mg/kg, intraperitoneal, 12 mice per group, FIG. 1, p=0.06): no significant difference
effects on grip strength using the hanging wire test [2]: no significant effects
probability of survival (day of death: loss of righting reflex for 30 seconds or found dead) ([3]; 10 mg/kg vs vehicle, FIG. 2, overall p=0.06): some improvement over the vehicle
probability of survival (day of death: loss of righting reflex for 30 seconds or found dead) ([3]; 30 mg/kg vs vehicle, FIG. 2, p<0.05): survived significantly longer than the vehicle-treated group
longer life expectancy than no treatment ([4]; 10 mg/kg vs vehicle): about 4 days
latency between 20% loss of body weight and death ([4]; 10 mg/kg): about 6 days
longer life expectancy over the 10 mg/kg treatment ([4]; 30 mg/kg vs 10 mg/kg): about 4 days
longer life expectancy than no treatment ([4]; 30 mg/kg vs vehicle): about 8 days
latency between 20% loss of body weight and death ([4]; 30 mg/kg): about 10 days
latency between 20% loss of body weight and death, effect of dose ([4]; vehicle, 10 and 30 mg/kg, ANOVA p<0.05, FIG. 3): statistically significant dose-dependent increase
